Laboratory results as given in patent publication US20230226137A1, “Novel Pharmaceutical Composition for Treating Dry Eye Syndrome” (Novacell Technology Inc., priority 2020, published 2023).
pEC50, pIC50: −log10 of the molar value. Non-standard residues stand in square brackets, D forms with d. Residues, ends and D or L forms follow the SMILES beside them. *: point of attachment. Octanoyl = CCCCCCCC(=O)*

Columns and labels:
Type in all cases: cell-based
Staphylococcus aureus = conditions: 18 h
Procedure: (§1) In addition, in order to measure the antibacterial activity of the peptide, Staphylococcus aureus, which is a gram-positive bacterium, and Pseudomonas aeruginosa, which is a gram-negative bacterium, were prepared, followed by 4th smearing on a flat medium of an agar, and culturing was performed overnight in a 36° C. incubator. The next day, strain colonies generated on the agar plate medium were inoculated into 3 mL-nutrient broth and cultured overnight in a shaking incubator at 36° C. and 220 rpm. The next day, the bacteria were diluted to measure absorbance at 600 nm, the absorbance was adjusted to 0.5, and the bacteria were diluted in a nutrient broth at a ratio of 1:100. Then, the peptides prepared in the Example were sequentially diluted in a nutrient broth at concentrations of 0, 1.25, 2.5, 5, 10, 20, and 40 μM, prepared 1 mL each, and then 1 mL of the diluted bacteria was inoculated. Then, the mixture was stirred at 36° C. and 220 rpm and incubated for 18 hours, and then the absorbance was measured at 600 nm.

Pseudomonas aeruginosa = conditions: 18 h
Procedure: as §1

FPR2 = molecular target: T1, FPR2 (Homo sapiens, UniProt P25090); assay: FPR2 activation, intracellular calcium (Fura-2/AM) in RBL cells overexpressing FPR2; conditions: calcium ion increase in FPR2-overexpressing RBL cells
T1 construct: expressed in transfected cells; host or cells: RBL cells (FPR2-overexpressing)
T1 sequence (P25090 1-351): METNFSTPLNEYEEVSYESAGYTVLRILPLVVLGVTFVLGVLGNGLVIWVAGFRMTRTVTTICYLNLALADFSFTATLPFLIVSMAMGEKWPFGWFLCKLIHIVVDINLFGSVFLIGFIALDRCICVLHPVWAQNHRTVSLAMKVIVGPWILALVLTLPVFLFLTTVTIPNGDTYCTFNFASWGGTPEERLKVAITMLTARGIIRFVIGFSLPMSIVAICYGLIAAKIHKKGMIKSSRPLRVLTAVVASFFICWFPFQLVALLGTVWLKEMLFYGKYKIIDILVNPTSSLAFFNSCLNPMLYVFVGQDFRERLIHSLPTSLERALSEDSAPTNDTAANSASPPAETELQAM
Procedure: The present inventors have observed changes in calcium ion permeability in order to confirm whether or not the immunomodulatory and antibacterial peptide candidates of the present invention activates the immunomodulatory function of a living organism. Specifically, the concentration of calcium ions in cells was measured in order to confirm whether the peptide activates FPR2. To this end, the present inventors used RBL cells in which FPR2 was not expressed, RBL cells in which FPR1 was overexpressed (FPR1-RBL), and RBL cells in which FPR2 was overexpressed, and used Fura-2/AM, a staining material having a strong binding affinity for calcium, in a method for sensitively measuring free intracellular calcium ions. That is, the cells were cultured in RPMI medium containing 10% fetal bovine serum, centrifuged in the mid-log phase (1-3×10^7 cells/mL), and harvested. Then, the cells were washed several times with RPMI medium containing no fetal bovine serum and resuspended in RPMI medium to a concentration of 1×10^7 cells/mL. Then, the Fura-2/AM at a final concentration of 3 μM was added thereto and incubated in an incubator (37° C., 5% CO2) for 45 minutes with continuous stirring. After the appropriate time elapsed, the cells were harvested and washed again several times with RPMI medium. Then, the cells were suspended in an appropriate amount of RPMI medium, in which sulfinpyrazone was supplemented at a concentration of 250 μM, so as to prevent the Fura-2 that entered into the cells from being released to the outside of the cells. Approximately 2×10^6 cells were taken each time and harvested by rapid centrifugation and resuspended in 1 mL of Locke solution in which EGTA was added but no calcium ions were added, and the absorbance ratios at two wavelengths of 340 nm and 380 nm were monitored on a spectrophotometer. After treating with the peptide according to the present invention at different concentrations (1 μM, 0.1 μM, and 0.01 μM) at intervals of about 1 minute, the difference in absorbance at two wavelengths was examined and this was later converted to the concentration of calcium ions freed into the cells according to the method of Grynkiewicz.

Compound | pIC50 (Staphylococcus aureus) | pIC50 (Pseudomonas aeruginosa) | pEC50 (FPR2)
CCCCCCCC(=O)N[C@@H](CCCCN)C(=O)N[C@@H](Cc1ccccc1)C(=O)N[C@@H](CCCCN)C(=O)N[C@@H](Cc1c[nH]c2ccccc12)C(=O)N[C@@H](CCCNC(=N)N)C(=O)N[C@@H](Cc1ccc(O)cc1)C(=O)N[C@H](CCSC)C(N)=O [compound 2] (Octanoyl-KFKWRY[dM]-NH2) | 4.68 | 5.33 | 7.03
CSCC[C@@H](NC(=O)[C@H](Cc1ccc(O)cc1)NC(=O)[C@H](CCCNC(=N)N)NC(=O)[C@H](Cc1c[nH]c2ccccc12)NC(=O)[C@H](CCCCN)NC(=O)[C@H](Cc1ccccc1)NC(=O)[C@@H](N)CCCCN)C(N)=O [compound 3] (H-KFKWRY[dM]-NH2) | 4.70 | 5.13 | 7.18
CCCCCCCC(=O)N[C@@H](CCCCN)C(=O)N[C@@H](Cc1c[nH]c2ccccc12)C(=O)N[C@@H](CCCCN)C(=O)N[C@@H](Cc1c[nH]c2ccccc12)C(=O)N[C@@H](CCCNC(=N)N)C(=O)N[C@@H](Cc1ccc(O)cc1)C(=O)N[C@H](CCSC)C(N)=O [compound 4] (Octanoyl-KWKWRY[dM]-NH2) | 4.91 | 5.07 | 6.97
CCCCCCCC(=O)N[C@@H](CCCNC(=N)N)C(=O)N[C@@H](Cc1c[nH]c2ccccc12)C(=O)N[C@@H](CCCNC(=N)N)C(=O)N[C@@H](Cc1c[nH]c2ccccc12)C(=O)N[C@@H](CCCNC(=N)N)C(=O)N[C@@H](Cc1ccc(O)cc1)C(=O)N[C@H](CCSC)C(N)=O [compound 5] (Octanoyl-RWRWRY[dM]-NH2) | 5.31 | 4.60 | 7.04
CSCC[C@@H](NC(=O)[C@H](Cc1ccc(O)cc1)NC(=O)[C@H](CCCNC(=N)N)NC(=O)[C@H](Cc1c[nH]c2ccccc12)NC(=O)[C@H](CCCNC(=N)N)NC(=O)[C@H](Cc1c[nH]c2ccccc12)NC(=O)[C@@H](N)CCCNC(=N)N)C(N)=O [compound 6] (H-RWRWRY[dM]-NH2) | 4.40 | 5.19 | 7.52
